Test results from patent US5403930A, “Substituted salicylic acids” (Pharmacia AB, priority 1991, dated 1995).
Entries after “also recorded” stand apart in the source; their conditions may differ.

What was measured:
human lymphocytes = assay: Concanavalin A-induced proliferation of human lymphocytes ([3H]-thymidine); format: cell-based; conditions: Lymphocyte, 72 h, 250 μM test compound, 2.5 μg/ml Concanavalin A, 3 days, 2 experiments
Experimental: (§1) Effect of Compounds on Human Lymphocyte Proliferation Peripheral blood mononuclear cells were isolated from heparinized blood from healthy volunteers by density gradient centrifugation as described by Bain and Pshyk, Transplantation Proc, 4:163-164 (1972). Cell proliferation induced by Concanavalin A was measured in a standard assay such as described in Soderstrom et at., Scand J Immunol, 32:503-516 (1990) using 5% fetal bovine serum in the culture medium. The reaction mixture (final concentrations) consisted of 200 000 cells stimulated with 2.5 μg/ml Concanavalin A and test compounds in a total volume of 0.2 ml. The test compounds were added at the start of the assay, which was run for a total of three days with addition ofradioactive [3H]-thymidine during the last 18 h. Cell bound radioactivity was measured in a liquid scintillation counter.

Human Granulocytes [1] = assay: FMLP-induced superoxide production of human granulocytes, 10 μM test compound; format: cell-based; conditions: 10 nM FMLP, 400 000 granulocytes
Experimental: Effects of Test Compounds on Superoxide Production of Human Granulocytes
(§2) Granulocytes were isolated from the heparinized blood from healthy volunteers. The superoxide assay was essentially that of J. M. McCord and I Fridovich (J. Biol. Chem. 244:6049-6055 (1969)) as modified by G Carlin et al. (Pharmacol. Toxicol 65:121-127 (1989)). The reaction mixture contained (final concentrations) 125 μM cytochrome C in Dulbeccos phosphate buffer with Mg and Ca, 10 μM test compound and 400 000 granulocytes treated with 5 μg/ml of cytochalasin B immediately before the experiment. This reaction mixture was preincubated at 37° C. for 10 minutes, whereafter 10 nM N-formyl-L-methionyl-L-leucyl-L-phenylalanine was added to start the reaction, making the final volume 1 ml. After 10 minutes the tubes were centrifuged and the absorbance of the supernatant at 540 and 550 nm was measured. The superoxide production was expressed as the difference in absorbance at these wavelengths.

[2] = system: human lymphocytes and granulocytes; assay: Overall activity judged from the results of Examples 40 to 42
Experimental: as §1, with “Peripheral” for “Effect of Compounds on Human Lymphocyte Proliferation Peripheral”
as §2
as §2, with “et at.” for “et al.”, “Ca, 100” for “Ca, 10”, “and 600” for “and 400”, “whereafter 100” for “whereafter 10”

Human Granulocytes [3] = assay: FMLP-induced superoxide production of human granulocytes, 100 μM test compound; format: cell-based; conditions: 100 nM FMLP, 600 000 granulocytes
Experimental: Effects of Test Compounds on Superoxide Production of Human Granulocytes at 100 um Concentration
as §2, with “et at.” for “et al.”, “Ca, 100” for “Ca, 10”, “and 600” for “and 400”, “whereafter 100” for “whereafter 10”

SMILES	inhibition at 250 µM (human lymphocytes)	inhibition at 10 µM (Human Granulocytes [1])	Overall activity ranking [2]	inhibition at 100 µM (Human Granulocytes [3])
Cc1cc(NS(=O)(=O)c2ccc(C=Cc3ccc(O)c(C(=O)O)c3)cc2)no1 [Example 18, 2-Hydroxy-5-[2-[4-[(5-methyl-3-isoxazolyl)aminosulfonyl]phenyl]ethenyl]benzoic acid]	43.8%	44.2%	–	–
O=C(O)c1cc(C=Cc2ccc(S(=O)(=O)Nc3ncccc3OCc3ccccc3)cc2)ccc1O [Example 16, 2-Hydroxy-5-[2-[4-[[3-(phenylmethoxy)-2-pyridinylamino]sulfonyl]phenyl]ethenyl]benzoic acid]	95.4%	94.6%	most active	–
O=C(O)c1cc(C=Cc2ccc(S(=O)(=O)Nc3nc4ccc(F)cc4s3)cc2)ccc1O [Example 21, 2-Hydroxy-5-[2-[4-[[6-fluoro-(2-benzo[d]thiazolyl)]aminosulfonyl]phenyl]ethenyl]benzoic acid]	99.8%	93%	most active	–
Cc1ccnc(NS(=O)(=O)c2ccc(C=Cc3ccc(O)c(C(=O)O)c3)cc2)c1 [Example 25, 2-Hydroxy-5-[2-[4-[(4-methyl-2-pyridinylamino)sulfonyl]phenyl]-ethenyl]benzoic acid ethanol solvate (2:1)]	–	45.5%	–	–
Cc1cccnc1NS(=O)(=O)c1ccc(C=Cc2cc(C(=O)O)c(O)cc2F)cc1 [Example 38, 4-Fluoro-2-hydroxy-5-[2-[4-[(3-methyl-2-pyridinylamino)sulfonyl]phenyl]ethenyl]benzoic acid]	100%	–	most active	98.7%
Cc1cccnc1NS(=O)(=O)c1ccc(CC(=O)c2ccc(O)c(C(=O)O)c2)cc1 [Example 27, 2-Hydroxy-5-[[4-[(3-methyl-2-pyridinylamino)sulfonyl]phenyl]acetyl]benzoic acid]	37.3%	32.7%	–	–
Cc1cccnc1NS(=O)(=O)c1ccc(C#Cc2ccc(O)c(C(=O)O)c2)cc1 [Example 2, 2-Hydroxy-5-[[4-[(3-methyl-2-pyridinylamino)-sulfonyl]phenyl]ethynyl]benzoic acid]	99.5%	86%	most active; also recorded: considered to be the best one	94.1%
O=C(O)c1cc(C=Cc2ccc(S(=O)(=O)Nc3ccc(Cl)cn3)cc2)ccc1O [Example 17, 5-[2-[4-[(5-Chloro-2-pyridinylamino)sulfonyl]phenyl]ethenyl]-2hydroxybenzoic acid]	99.5%	71.9%	most active	–
Cc1ccnc(NS(=O)(=O)c2ccc(C=Cc3ccc(O)c(C(=O)O)c3)cc2)n1 [Example 19, 2-Hydroxy-5-[2-[4-[(4-methyl-2-pyrimidyl)amino-sulfonyl]phenyl]ethenyl]benzoic acid ethanol solvate (2:1)]	10.3%	65.9%	–	–
CN(c1ccccn1)S(=O)(=O)c1ccc(C=Cc2ccc(O)c(C(=O)O)c2)cc1 [Example 22, 2-Hydroxy-5-[2-[4-[N-methyl-(2-pyridinyl)aminosulfonyl]phenyl]ethenyl]benzoic acid]	99.8%	85.5%	most active	–
O=C(O)c1cc(C=Cc2ccc(S(=O)(=O)Nc3cnccn3)cc2)ccc1O [Example 20, 2-Hydroxy-5-[2-[4-[(2-pyrazinyl)aminosulfonyl]phenyl]ethenyl]benzoic acid]	34.8%	35.1%	–	–
Cc1ccc(NS(=O)(=O)c2ccc(C=Cc3ccc(O)c(C(=O)O)c3)cc2)nc1 [Example 15, 2-Hydroxy-5-[2-[4-[(5-methyl-2-pyridinylamino)sulfonyl]phenyl]ethenyl]benzoic acid]	93.9%	–	–	–
O=C(C=Cc1ccc(S(=O)(=O)Nc2ccccn2)cc1)c1ccc(O)c(C(=O)O)c1 [Example 29, 2-Hydroxy-5-[1-oxo-3-[4-[(2-pyridinylamino)sulfonyl]phenyl]-2-propenyl]benzoic acid]	66%	33.4%	–	–
O=C(O)c1cc(C=Cc2ccc(S(=O)(=O)Nc3ccccn3)cc2)ccc1O [Example 3, 2-Hydroxy-5-[2-[4-[(2-pyridinylamino)sulfonyl]phenyl]ethenyl]benzoic acid]	73.6%	55.7%	–	–
O=C(O)c1cc(C#Cc2ccc(S(=O)(=O)Nc3nc4ccc(F)cc4s3)cc2)ccc1O [Example 34]	98%	–	–	–
Cc1cccnc1NS(=O)(=O)c1cccc(C#Cc2ccc(O)c(C(=O)O)c2)c1 [Example 39, 2-Hydroxy-5-[[3-[(3-methyl-2-pyridinylamino)sulfonyl]phenyl]ethynyl]benzoicacid]	100%	–	most active	93.5%
CC(C)COC(=O)c1cc(C=Cc2ccc(S(=O)(=O)Nc3ccccn3)cc2)ccc1O [Example 5, Isobutyl 2-hydroxy-5-[2-[4-[(2-pyridinylamino)sulfonyl]phenyl]ethenyl]benzoate]	–	25.8%	–	–
CN(c1ccccn1)S(=O)(=O)c1ccc(C#Cc2ccc(O)c(C(=O)O)c2)cc1 [Example 35, 2-Hydroxy-5-[[4-[N-methyl-(2-pyridinyl)aminosulfonyl]phenyl]ethynyl]benzoicacid]	99%	–	–	–
O=C(O)c1cc(CCc2ccc(S(=O)(=O)Nc3ccccn3)cc2)ccc1O [Example 26, 2-Hydroxy-5-[2-[4-[(2-pyridinylamino)sulfonyl]phenyl]ethyl]benzoic acid]	16%	26.8%	–	–
Cc1cccnc1NS(=O)(=O)c1ccc(C#Cc2cc(C(=O)O)c(O)cc2F)cc1 [Example 37, 4-Fluoro-2-hydroxy-5-[[4-[(3-methyl-2-pyridinylamino)sulfonyl]phenyl]ethynyl]benzoic acid]	100%	–	most active	97.5%
O=C(Cc1ccc(S(=O)(=O)Nc2ccccn2)cc1)c1ccc(O)c(C(=O)O)c1 [Example 28]	15%	17.9%	–	–
O=C(O)c1cc(C#Cc2ccc(S(=O)(=O)Nc3ccc(Cl)cn3)cc2)ccc1O [Example 32, 5-[[4-[(5-Chloro-2-pyridinylamino)sulfonyl]phenyl]ethynyl]-2hydroxybenzoic acid]	100%	–	–	–
O=C(O)c1cc(C#Cc2ccc(S(=O)(=O)Nc3ccccn3)cc2)ccc1O [Example 1, 2-Hydroxy-5-[[4-[(2-pyridinylamino)sulfonyl]phenyl]ethynyl]benzoic acid]	95.6%	71%	–	–
Cc1ccnc(NS(=O)(=O)c2ccc(C#Cc3ccc(O)c(C(=O)O)c3)cc2)c1 [Example 33, 2-Hydroxy-5-[[4-[(4-methyl-2-pyridinyl)amino-sulfonyl]phenyl]ethynyl]benzoic acid]	–	–	most active	92.1%
O=C(O)c1cc(C#Cc2ccc(S(=O)(=O)Nc3ncccc3OCc3ccccc3)cc2)ccc1O [Example 31, 2-Hydroxy-5-[[4-[[3-(phenylmethoxy)-2-pyridinylamino]sulfonyl]phenyl]ethynyl]benzoic acid]	100%	–	–	–
Cc1cccnc1NS(=O)(=O)c1ccc(C=Cc2ccc(O)c(C(=O)O)c2)cc1 [Example 4, 2-Hydroxy-5-[2-[4-[(3-methyl-2-pyridinylamino)sulfonyl]phenyl]ethenyl]benzoic acid]	92.3%	76.9%	–	–
